Measured values: the supplement of paper PMC10307832

What was measured:
Experiment in all cases: relative viability (nuclei count vs DMSO), 5 days (fraction); higher = more cells survive
[1] = compound: CC(=O)Nc1cccc(-n2c(=O)n(C3CC3)c(=O)c3c(Nc4ccc(I)cc4F)n(C)c(=O)c(C)c32)c1 [Trametinib] + CC(=O)c1c(C)c2cnc(Nc3ccc(N4CCNCC4)cn3)nc2n(C2CCCC2)c1=O [Palbociclib] (partner 0.5 µM)
Procedure, shortened: (§1)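 A single step with final 0.05% Triton X-100, 1% formaldehyde and 1 ug/ml Hoechst fixed the cells and stained nuclei 5 days after treatment. Lung cancer cell lines in 1536-well plates had been treated by pin tool the day after seeding with one drug alone or a fixed anchor-drug dose plus five library-drug doses (not always all listed) in √10 steps, and nuclei were counted on 4× images. Relative viability is the ratio of nuclei in treated wells to nuclei in vehicle wells, taken as the median of duplicate plates.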

[2] = compound: CC(=O)Nc1cccc(-n2c(=O)n(C3CC3)c(=O)c3c(Nc4ccc(I)cc4F)n(C)c(=O)c(C)c32)c1 [Trametinib] + CCNC(=O)c1noc(-c2cc(C(C)C)c(O)cc2O)c1-c1ccc(CN2CCOCC2)cc1 [Luminespib] (partner 0.01 µM)
Procedure, shortened: as §1

[3] = compound: CC(=O)Nc1cccc(-n2c(=O)n(C3CC3)c(=O)c3c(Nc4ccc(I)cc4F)n(C)c(=O)c(C)c32)c1 [Trametinib] + O=C(c1cc(Cc2n[nH]c(=O)c3ccccc23)ccc1F)N1CCN(C(=O)C2CC2)CC1 [Olaparib] (partner 8 µM)
Procedure, shortened: as §1

[4] = compound: CN1C=C(C2=CC=CC=C21)/C=C\3/C4=C(C=CC=N4)NC3=O + Nc1ncn([C@H]2C[C@H](O)[C@@H](CO)O2)c(=O)n1 [Decitabine] (partner 2 µM)
Procedure, shortened: as §1

HOP-62
relative viability ([1]; first compound 0.0025 µM): 0.505
relative viability ([1]; first compound 0.007906 µM): 0.444
relative viability ([1]; first compound 0.025 µM): 0.397
relative viability ([1]; first compound 0.07906 µM): 0.231
relative viability ([1]; first compound 0.25 µM): 0.158
relative viability ([2]; first compound 0.0025 µM): 0.933
relative viability ([2]; first compound 0.007906 µM): 0.754
relative viability ([2]; first compound 0.025 µM): 0.533
relative viability ([2]; first compound 0.07906 µM): 0.361
relative viability ([2]; first compound 0.25 µM): 0.173
relative viability ([3]; first compound 0.0025 µM): 0.395
relative viability ([3]; first compound 0.007906 µM): 0.377
relative viability ([3]; first compound 0.025 µM): 0.417
relative viability ([3]; first compound 0.07906 µM): 0.376
relative viability ([3]; first compound 0.25 µM): 0.125
relative viability ([4]; first compound 0.02 µM): 0.184
relative viability ([4]; first compound 0.06325 µM): 0.206
relative viability ([4]; first compound 0.6325 µM): 0.188
relative viability ([4]; first compound 2 µM): 0.241

NCI-H1793
relative viability ([1]; first compound 0.0025 µM): 0.277
relative viability ([1]; first compound 0.007906 µM): 0.242
relative viability ([1]; first compound 0.025 µM): 0.225
relative viability ([1]; first compound 0.07906 µM): 0.213
relative viability ([1]; first compound 0.25 µM): 0.192
relative viability ([2]; first compound 0.0025 µM): 0.304
relative viability ([2]; first compound 0.007906 µM): 0.159
relative viability ([2]; first compound 0.025 µM): 0.142
relative viability ([2]; first compound 0.07906 µM): 0.173
relative viability ([2]; first compound 0.25 µM): 0.17
relative viability ([3]; first compound 0.0025 µM): 0.529
relative viability ([3]; first compound 0.007906 µM): 0.461
relative viability ([3]; first compound 0.025 µM): 0.361
relative viability ([3]; first compound 0.07906 µM): 0.29
relative viability ([3]; first compound 0.25 µM): 0.211
relative viability ([4]; first compound 0.02 µM): 0.34
relative viability ([4]; first compound 0.06325 µM): 0.521
relative viability ([4]; first compound 0.2 µM): 0.493
relative viability ([4]; first compound 0.6325 µM): 0.59
relative viability ([4]; first compound 2 µM): 0.499

NCI-H1355
relative viability ([1]; first compound 0.0025 µM): 0.353
relative viability ([1]; first compound 0.007906 µM): 0.321
relative viability ([1]; first compound 0.025 µM): 0.217
relative viability ([1]; first compound 0.07906 µM): 0.225
relative viability ([1]; first compound 0.25 µM): 0.224
relative viability ([2]; first compound 0.0025 µM): 0.486
relative viability ([2]; first compound 0.007906 µM): 0.605
relative viability ([2]; first compound 0.025 µM): 0.323
relative viability ([2]; first compound 0.07906 µM): 0.35
relative viability ([2]; first compound 0.25 µM): 0.3
relative viability ([3]; first compound 0.0025 µM): 0.663
relative viability ([3]; first compound 0.007906 µM): 0.686
relative viability ([3]; first compound 0.025 µM): 0.552
relative viability ([3]; first compound 0.07906 µM): 0.48
relative viability ([3]; first compound 0.25 µM): 0.39
relative viability ([4]; first compound 0.02 µM): 0.342
relative viability ([4]; first compound 0.06325 µM): 0.375
relative viability ([4]; first compound 0.2 µM): 0.374
relative viability ([4]; first compound 0.6325 µM): 0.317
relative viability ([4]; first compound 2 µM): 0.324

COR-L23
relative viability ([1]; first compound 0.0025 µM): 0.317
relative viability ([1]; first compound 0.007906 µM): 0.246
relative viability ([1]; first compound 0.025 µM): 0.191
relative viability ([1]; first compound 0.07906 µM): 0.143
relative viability ([1]; first compound 0.25 µM): 0.14
relative viability ([2]; first compound 0.0025 µM): 0.638
relative viability ([2]; first compound 0.007906 µM): 0.462
relative viability ([2]; first compound 0.025 µM): 0.306
relative viability ([2]; first compound 0.07906 µM): 0.248
relative viability ([2]; first compound 0.25 µM): 0.236
relative viability ([3]; first compound 0.0025 µM): 0.422
relative viability ([3]; first compound 0.007906 µM): 0.473
relative viability ([3]; first compound 0.025 µM): 0.43
relative viability ([3]; first compound 0.07906 µM): 0.392
relative viability ([3]; first compound 0.25 µM): 0.261
relative viability ([4]; first compound 0.02 µM): 0.446
relative viability ([4]; first compound 0.06325 µM): 0.372
relative viability ([4]; first compound 0.2 µM): 0.403
relative viability ([4]; first compound 0.6325 µM): 0.408
relative viability ([4]; first compound 2 µM): 0.435

HCC-44
relative viability ([1]; first compound 0.0025 µM): 0.974
relative viability ([1]; first compound 0.007906 µM): 1.01
relative viability ([1]; first compound 0.025 µM): 1.08
relative viability ([1]; first compound 0.07906 µM): 1.03
relative viability ([1]; first compound 0.25 µM): 1.02
relative viability ([2]; first compound 0.0025 µM): 1.03
relative viability ([2]; first compound 0.007906 µM): 0.907
relative viability ([2]; first compound 0.025 µM): 0.931
relative viability ([2]; first compound 0.07906 µM): 0.553
relative viability ([2]; first compound 0.25 µM): 0.193
relative viability ([3]; first compound 0.0025 µM): 0.96
relative viability ([3]; first compound 0.007906 µM): 1.06
relative viability ([3]; first compound 0.025 µM): 1.08
relative viability ([3]; first compound 0.07906 µM): 0.897
relative viability ([3]; first compound 0.25 µM): 0.87
relative viability ([4]; first compound 0.02 µM): 0.877
relative viability ([4]; first compound 0.06325 µM): 0.938
relative viability ([4]; first compound 0.2 µM): 0.95
relative viability ([4]; first compound 0.6325 µM): 0.962
relative viability ([4]; first compound 2 µM): 0.838

A-427
relative viability ([1]; first compound 0.0025 µM): 0.534
relative viability ([1]; first compound 0.007906 µM): 0.511
relative viability ([1]; first compound 0.025 µM): 0.45
relative viability ([1]; first compound 0.07906 µM): 0.45
relative viability ([1]; first compound 0.25 µM): 0.372
relative viability ([2]; first compound 0.0025 µM): 0.805
relative viability ([2]; first compound 0.007906 µM): 0.871
relative viability ([2]; first compound 0.025 µM): 0.691
relative viability ([2]; first compound 0.07906 µM): 0.661
relative viability ([2]; first compound 0.25 µM): 0.297
relative viability ([3]; first compound 0.0025 µM): 0.748
relative viability ([3]; first compound 0.007906 µM): 0.828
relative viability ([3]; first compound 0.025 µM): 0.729
relative viability ([3]; first compound 0.07906 µM): 0.671
relative viability ([3]; first compound 0.25 µM): 0.524
relative viability ([4]; first compound 0.02 µM): 0.632
relative viability ([4]; first compound 0.06325 µM): 0.479
relative viability ([4]; first compound 0.6325 µM): 0.557
relative viability ([4]; first compound 2 µM): 0.651

NCI-H520
relative viability ([1]; first compound 0.0025 µM): 0.217
relative viability ([1]; first compound 0.007906 µM): 0.238
relative viability ([1]; first compound 0.025 µM): 0.199
relative viability ([1]; first compound 0.07906 µM): 0.158
relative viability ([1]; first compound 0.25 µM): 0.232
relative viability ([2]; first compound 0.0025 µM): 0.252
relative viability ([2]; first compound 0.007906 µM): 0.2
relative viability ([2]; first compound 0.025 µM): 0.259
relative viability ([2]; first compound 0.07906 µM): 0.253
relative viability ([2]; first compound 0.25 µM): 0.218
relative viability ([3]; first compound 0.0025 µM): 0.353
relative viability ([3]; first compound 0.007906 µM): 0.317
relative viability ([3]; first compound 0.025 µM): 0.355
relative viability ([3]; first compound 0.07906 µM): 0.306
relative viability ([3]; first compound 0.25 µM): 0.302
relative viability ([4]; first compound 0.02 µM): 0.46
relative viability ([4]; first compound 0.06325 µM): 0.492
relative viability ([4]; first compound 0.2 µM): 0.536
relative viability ([4]; first compound 0.6325 µM): 0.473
relative viability ([4]; first compound 2 µM): 0.52
